# Results: patent publication US11737466B2, “Method of improving the ability of plants to resistance diseases” (National Taiwan University, priority 2019, dated 2023)
# System: Bacillus amyloliquefaciens WF02
# Test: antagonistic assay (inhibition zone) on Bacillus amyloliquefaciens WF02 plate
# Assay type: cell-based
# Conditions: 100,000 ppm, 20 μL, 37° C., 48 hours, positive control, read-out: diameter of inhibition zone on WF02 plate
# Excerpt: To be used as leveling agents for the biological preparation, in the embodiment of the present invention, it is necessary to confirm that the Bidens pilosa extract of the present invention without the effect of inhibiting the growth of the Bacillus amyloliquefaciens WF02 of the present invention, so antagonistic assay was used; wherein ampicillin is known with the effect on inhibiting the growth of the Bacillus amyloliquefaciens, therefore, it was used as a positive control group. First, the Bacillus amyloliquefacien WF02 of the present invention was cultured in the above method and 100 μL of a bacterial solution with an OD600 value of 0.3, which approximately contains 10^8 CFU/mL, was uniformly applied to two agarose plates (diameter 9 cm) and a plurality of circular sterile filter papers (diameter 8 mm) was placed thereon; wherein one plate was for testing the higher concentration (125,000-200,000 ppm) of the Bidens pilosa of the present invention, and the other was for the lower concentration (300-2,000 ppm). […]
smiles,measurement,value
CC1(C)S[C@@H]2[C@H](NC(=O)[C@H](N)c3ccccc3)C(=O)N2[C@H]1C(=O)O [ampicillin],zone of inhibition at 100000 ppm,~18.4 mm
